“Also recorded” adds a separate entry of the source.
Key:
rat cardiac myocytes = experiment: Ca2+ transients in isolated rat cardiac myocytes incubated with exogenous IAPP, field stimulation; type: cell-based
Procedure: FIG. 8 illustrates that exogenous IAPP oligomers increase Ca^2+ transient amplitude in isolated rat cardiac myocytes.(A) Representative experiments in a control (top panel) myocyte and a cell pre-incubated with 50 μM hIAPP (bottom panel). (B-C) Effect of rat (B) and human (C) IAPP on Ca^2+ transient amplitude. […] For each group, measurements were done on ≧6 myocytes from 3 different rats.
Rat cardiac myocytes were incubated with exogenous human (amyloidogenic) and rat (non-amyloidogenic) IAPP and measured Ca2+ transients produced by field-stimulation at various frequencies (FIG. 8A).
(§1) Oligomerization of Aβ peptides is associated with Alzheimer's disease, and Aβ and IAPP have the same molecular weight sizes and are about 40% identical at the amino acid level.

[1] = Oligomer formation controls, dot blot with A-11 oligomer-specific antibody; type: physicochemical; conditions: 50 μM recombinant protein incubated at room temperature for 24 hours
From the text: Dot blots with the A-11 antibody, which is specific for toxic oligomers, show the presence of toxic oligomers amyloidogenic entities within the heart in patients with overweight/obesity (OW/OB) and diabetes (DM) (FIG. 4). Non-failing (NF) hearts from lean (L), L-NF group (control), lack toxic oligomers. The percentage of strong A-11 immunoreactivity signals (darker dots) is somewhat larger in hearts from the patients with diabetes, which also correlates with the western blot analysis indicating rich accumulation of IAPP entities with molecular weights greater than ˜16 kDa in these hearts. Apparently, IAPP oligomers are equally present in both ischemic (ICM) and non-ischemic (DCM) hearts (FIG. 4). […] Dots on the upper, right side corner show positive (human IAPP) and negative (rat IAPP) controls for oligomer formation (50 μM recombinant protein incubated at room temperature for 24 hours) (FIG. 4). Before the test with A-11 antibody, all protein homogenate samples were incubated with Protein A-coated magnetic beads to extract IgG, a possible source of cross-reactivity.

[2] = system: isolated rat cardiac myocytes; conditions: external human IAPP; Bell et al. 1995; cited from earlier work
[3] = system: sarcolemma of cardiac myocytes; experiment: Atomic force microscopy of sarcolemma defect depths on cardiac myocytes; type: cell-based; conditions: cardiac myocytes incubated with IAPP oligomers
From the text: FIG. 16 illustrates distribution of sarcolemma defect depths derived from AFM data.
as §1

[4] = system: isolated rat cardiac myocytes; experiment: Calcein leak from isolated rat cardiac myocytes incubated with IAPP oligomers; type: cell-based; conditions: incubation for 36 hours
From the text: (§2) The level of brain natriuretic peptide (BNP), a molecular marker of hypertrophy, is elevated (by 100±30%) in hearts from pre-diabetic HIP rats vs. age-matched control littermates and further increased with diabetes development (FIG. 12B). […] In contrast, the BNP level is not altered in pre-diabetic UCD-T2DM rats and only increases after the full development of diabetes (FIG. 12B). […] This may indicate that possible pores created in the sarcolemma may be smaller in size than the calcein molecule or significant sarcolemmal damage may require a longer time of incubation.

[5] = system: sarcolemma in cardiac myocytes; experiment: Cryo-electron microscopy of cardiac myocytes incubated with IAPP oligomers; type: cell-based; conditions: 50 μM IAPP oligomers for 36 hours
Procedure: FIG. 13 illustrates EM images of cardiac myocytes. Control (A-B) vs. incubated with 50 μM IAPP oligomers for 36 hours (C-H).
as §2

[6] = 50 μM IAPP, all stimulation frequencies

Row | Substance | Ca2+ transient amplitude (rat cardiac myocytes; 5 μM IAPP, monomeric form) | Ca2+ transient amplitude (rat cardiac myocytes; [6]) | oligomer formation (A-11 dot blot control) [1] | Ca2+ transient amplitude (rat cardiac myocytes; 50 μM IAPP, all stimulation frequencies, listed as Human IAPP) | hypertrophy induction [2] | sarcolemma thinning (density of thin patches, AFM) [3] | calcein leak from the cytoplasm [4] | structural modification of the sarcolemma (EM) [5]
1 | rat IAPP: rat islet amyloid polypeptide, non-amyloidogenic, SEQ ID NO: 2 KCNTATCATQRLANFLVRSSNNLGPVLPPTNVGSNTY (KCNTATCATQLANFLVRSSNNLGPVLPPTNVGSNTY; listed as Mus musculus) | modest increase | modest, not significant effect; also recorded: no further effect | negative |  |  |  |  | 
2 | human IAPP: human islet amyloid polypeptide, amyloidogenic, SEQ ID NO: 1 KCNTATCATQRLANFLVHSSNNFGAILSSTNVGSNTY (KCNTATCATQLANFLVHSSNNFGAILSSTNVGSNTY; listed as Homo sapiens) | modest increase | marked rise | positive | significantly increased | induces hyperthrophy |  |  | 
3 | IAPP oligomers: exogenous oligomers that human IAPP rapidly forms at 50 μM (KCNTATCATQLANFLVHSSNNFGAILSSTNVGSNTY) |  |  |  |  |  | induce sarcolemma thinning; also recorded: Density of thin sarcolemma patches is higher | does not reveal release of calcein; also recorded: does not induce significant calcein leak | significant structural modification of the sarcolemma
